1 compound from ChEMBL document CHEMBL4823283, “Vomifoliol isolated from mangrove plant Ceriops tagal inhibits the NFAT signaling pathway with CN as the target enzyme in vitro” (Bioorg Med Chem Lett, 2021) can be followed below.

Usually pIC50 stands for the IC50 on a negative log10 scale, so that one unit is a factor of ten.

Structures are written as SMILES. pIC50: −log10 of the molar value.

The target of experiment [1] is T1, Nuclear factor of activated T-cells, cytoplasmic 1 (Homo sapiens) (UniProt O95644).
T1 sequence (whole entry): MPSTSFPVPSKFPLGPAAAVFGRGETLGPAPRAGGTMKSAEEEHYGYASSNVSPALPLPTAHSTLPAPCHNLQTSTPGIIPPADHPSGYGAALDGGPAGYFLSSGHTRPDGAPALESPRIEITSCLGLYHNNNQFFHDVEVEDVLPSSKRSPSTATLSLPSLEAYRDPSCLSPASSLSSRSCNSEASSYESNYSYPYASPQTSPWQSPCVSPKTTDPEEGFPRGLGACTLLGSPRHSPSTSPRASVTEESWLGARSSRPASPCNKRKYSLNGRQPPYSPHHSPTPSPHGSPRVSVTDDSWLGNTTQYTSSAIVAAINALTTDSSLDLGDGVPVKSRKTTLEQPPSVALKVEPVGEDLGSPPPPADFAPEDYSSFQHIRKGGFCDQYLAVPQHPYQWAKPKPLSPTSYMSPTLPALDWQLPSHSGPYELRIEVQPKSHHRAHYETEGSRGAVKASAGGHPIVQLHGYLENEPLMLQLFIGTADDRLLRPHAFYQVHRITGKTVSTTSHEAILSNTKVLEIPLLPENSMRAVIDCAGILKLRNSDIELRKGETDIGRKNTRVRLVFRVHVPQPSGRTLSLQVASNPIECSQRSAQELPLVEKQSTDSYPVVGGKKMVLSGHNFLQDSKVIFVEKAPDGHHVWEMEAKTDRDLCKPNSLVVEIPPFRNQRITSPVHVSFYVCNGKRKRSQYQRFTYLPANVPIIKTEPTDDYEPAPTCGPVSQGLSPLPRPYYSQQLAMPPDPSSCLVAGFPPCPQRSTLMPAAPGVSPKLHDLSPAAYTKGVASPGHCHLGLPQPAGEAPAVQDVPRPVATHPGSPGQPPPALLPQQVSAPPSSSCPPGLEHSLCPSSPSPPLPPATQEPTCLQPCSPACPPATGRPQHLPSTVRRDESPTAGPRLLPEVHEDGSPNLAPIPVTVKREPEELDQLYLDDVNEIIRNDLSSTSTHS
Nature of the experiment: Inhibition of human NFAT-1 in human Jurkat cells assessed as decrease of PMA/ionomycin-induced IL-2 concentration measured after 44 hrs by western blot assay. The format is cell-based. The note with it: dose 5-25 µM. (A western blot detects proteins with antibodies after separation by electrophoresis.)

Experiment [2] concerns Splenocyte. Nature of the experiment: Cytotoxicity against mouse splenocytes assessed as cell survival at 1 to 30 uM measured after 48 hrs by CCK-8 assay relative to control. The format is functional. The note with it: dose 1-30 µM. For orientation: Formazan colour is commonly taken as a measure of viable cells.
Experiment [3] has as its system Splenocyte. The experiment is described as follows: Cytotoxicity against mouse splenocytes assessed as cell survival in presence of ConA measured after 44 hrs by CCK-8 assay. The format is functional, cell-based.
For experiment [4], the system named is Jurkat. Nature of the experiment: Cytotoxicity against human Jurkat cells assessed as cell survival at 1 to 40 uM measured after 48 hrs by MTT assay relative to control. The format is functional. The note with it: dose 1-40 µM.
In experiment [5] the target is Protein phosphatase 3 catalytic subunit alpha (Homo sapiens) (UniProt Q08209). Nature of the experiment: Inhibition of human calcineurin activity in PMA/ionomycin-induced human Jurkat cells measured after 44 hrs by Malachite green dye based fast green assay. Particulars: dose 1-100 µM.
In experiment [6] the test system is Splenocyte. Nature of the experiment: Cytotoxicity against mouse splenocytes assessed as cell survival at 50 to 100 uM measured after 48 hrs by CCK-8 assay relative to control. The format is functional. Particulars: dose 50-100 µM.
For experiment [7], the system named is Jurkat. The experiment is described as follows: Cytotoxicity against human Jurkat cells assessed as inhibition of PMA/ionomycin-induced proliferation measured after 48 hrs by MTT assay. The format is functional, cell-based.
Experiment [8] in a line: Inhibition of calcineurin (unknown origin). More on the design: species or system Homo sapiens.
For experiment [9], the target named is T1, Nuclear factor of activated T-cells, cytoplasmic 1 (Homo sapiens). Nature of the experiment: Inhibition of human NFAT-1 in human Jurkat cells assessed as decrease of PMA/ionomycin-induced NFAT dephosphorylation measured after 44 hrs by western blot assay. The format is cell-based. Particulars: dose 5-25 µM.
For experiment [10], the system named is Jurkat. The experiment is described as follows: Cytotoxicity against human Jurkat cells assessed as cell survival at 75 to 100 uM measured after 48 hrs by MTT assay relative to control. The format is functional. Particulars: dose 75-100 µM.

Regarding `CC1=CC(=O)CC(C)(C)[C@@]1(O)/C=C/[C@@H](C)O` [BLUMENOL A], the Activity result in [1] was “Dose-Dependent Effect”; in the experiment on Splenocyte [2] it was above 90%; in the experiment on Splenocyte [3], “Dose-Dependent Effect”; in the experiment with Jurkat [4], above 90%; in experiment [5] it was “Dose-Dependent Effect”; in the experiment with Splenocyte [6] it was below 90%. In addition, the Activity entry was “Dose-Dependent Effect” in the experiment on Jurkat [7], “Dose-Dependent Effect” in experiment [9] and below 90% with Jurkat [10]. Also, the results for the pIC50 (in the experiment on Splenocyte [3]; in the experiment on Jurkat [7]; in experiment [8]) were 4.73, 4.70 and 4.82, respectively.
